Test results taken from patent US20240034785A1, “RXR-ALPHA BINDERS AND RXR-ALPHA/PLK1 MODULATORS” (NUCMITO PHARMACEUTICALS CO. LTD., priority 2020, published 2024).

Columns and labels:
RXRα shift = experiment: Western blot of RXRα mobility shift (phosphorylation) in mitotic HeLa cells treated with inhibitors; assay type: cell-based, human; conditions: for RXRα shift (mobility shift on SDS-PAGE, WB): mitotic HeLa cells released from TT block, inhibitors for 15 min (FIG. 16)
Protocol: (§1) Cells were synchronized at GUS boundary by a double thymidine block. Briefly, cells cultured in a medium containing 2 mM thymidine for 16 hr were released into a normal medium for 8 hr, subjected to a second thymidine block for 16 hr, and then released into a fresh medium again. Alternatively, cells were synchronized at prometaphase by a thymidine-nocodazole arrest (an 18-hr thymidine arrest and a 5-hr release, followed by a 5-hr 100 ng/mL nocodazole arrest).

cancer cells = experiment: Mitotic progression of cancer cells (FACS analysis); assay type: cell-based
Protocol: Cells were harvested by trypsin digestion, washed with PBS, and fixed with ice-cold 70% ethanol overnight at 4° C. The fixed cells were then washed twice in PBS and treated for 10 min at room temperature with 0.5 μg/mL 4-6-diamidino-2-phenylindole (DAPI) in PBS and analyzed on a FACSCAN™ flow cytometer. Flow cytometry data were analyzed using CYTEXPERT.

QSG-7701 cells = experiment: Western blot analysis of QSG-7701 normal liver cells; assay type: cell-based, human; conditions: 12 hr (FIG. 61)
PLK1 phosphorylation = experiment: Western blot of PLK1 activation/phosphorylation in mitotic cells; assay type: cell-based, human
Protocol: as §1

[1] = test system: centrosomal localization of pS56-RXRα or RXRα; experiment: Immunostaining of centrosomal localization of pS56-RXRα or RXRα in metaphase HeLa cells; assay type: cell-based, human; conditions: metaphase HeLa cells (FIG. 33)
Protocol: Cells mounted on glass slides were fixed with methanol at −20° C. for 10 min, then permeabilized with 0.05% Triton X-100 in a PBS buffer for 8 min at 4° C., and blocked with 1% bovine serum in PBS for 30 min at room temperature, followed by incubation with primary antibodies at room temperature for 3 hr and detected by FITC-labeled anti-IgG (1:200), anti-goat IgG conjugated with Cy3 (1:200) at room temperature for 1 hr. The cells were costained with 40,6-diamidino-2-phenylindole (DAPI) (1:10,000 dilution) to visualize nuclei. The images were taken under a LEICA TCS SP8 confocal laser scanning microscope system or an LSM-510 confocal laser scanning microscope system.

[2] = target: T1, p-RXRα and PLK1 at the centrosome (Homo sapiens, UniProt P19793); experiment: In situ proximity ligation assay (PLA) in HepG2 cells; assay type: cell-based; conditions: RO-3306 10 μM for 30 min or compound A1 10 μM for 2 hr (FIG. 56)
T1 construct: endogenous in cells; host or cells: HepG2
T1 sequence (P19793 1-462): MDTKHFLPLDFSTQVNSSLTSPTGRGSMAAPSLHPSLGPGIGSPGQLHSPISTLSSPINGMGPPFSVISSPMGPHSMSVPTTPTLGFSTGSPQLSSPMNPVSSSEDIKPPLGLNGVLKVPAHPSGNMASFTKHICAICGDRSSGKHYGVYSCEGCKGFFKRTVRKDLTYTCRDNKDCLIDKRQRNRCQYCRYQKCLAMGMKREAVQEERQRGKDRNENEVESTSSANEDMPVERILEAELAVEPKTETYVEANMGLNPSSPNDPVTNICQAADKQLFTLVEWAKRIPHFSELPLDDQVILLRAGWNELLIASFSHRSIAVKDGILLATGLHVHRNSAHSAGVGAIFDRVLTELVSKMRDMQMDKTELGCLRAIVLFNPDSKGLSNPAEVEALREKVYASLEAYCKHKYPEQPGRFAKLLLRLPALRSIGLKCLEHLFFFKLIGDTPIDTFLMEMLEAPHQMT
Protocol: An in situ proximity ligation assay (PLA) was performed in HeLa cells and HepG2 by using a DOULINK™ assay kit. Briefly, cells mounted on glass slides were fixed with methanol at −20° C. for 5 min, then permeabilized with 0.05% Triton X-100 in a PBS buffer for 8 min at 4° C., and blocked with a blocking solution for 60 min at 37° C., followed by incubation with primary antibodies for 60 min at 37° C. The slides were then washed three times with wash buffer A, and PLA labeled secondary antibodies (anti-mouse, minus; anti-rabbit, plus) were added and incubated for 60 min at 37° C. The slides were washed two times with wash buffer A and a ligation solution including a ligase was added for 30 min at 37° C. After ligation, the slides were washed two times with wash buffer A and followed by incubation with an amplification buffer including a polymerase for 100 min at 37° C. After amplification, the slides were washed two times with 1×wash buffer B and one time in 0.01×wash buffer B. Finally, the slides were mounted using a minimal volume of a mounting medium with DAPI and analyzed in a confocal microscope after 15 min.

[3] = target: T2, retinoic acid receptor-γ (RARγ) (UniProt P13631 1-454, limits assumed); experiment: co-immunoprecipitation from HeLa cells (IP: FLAG, WB: Myc)
T2 construct: also called FLAG-RARγ
T2 sequence (looked up): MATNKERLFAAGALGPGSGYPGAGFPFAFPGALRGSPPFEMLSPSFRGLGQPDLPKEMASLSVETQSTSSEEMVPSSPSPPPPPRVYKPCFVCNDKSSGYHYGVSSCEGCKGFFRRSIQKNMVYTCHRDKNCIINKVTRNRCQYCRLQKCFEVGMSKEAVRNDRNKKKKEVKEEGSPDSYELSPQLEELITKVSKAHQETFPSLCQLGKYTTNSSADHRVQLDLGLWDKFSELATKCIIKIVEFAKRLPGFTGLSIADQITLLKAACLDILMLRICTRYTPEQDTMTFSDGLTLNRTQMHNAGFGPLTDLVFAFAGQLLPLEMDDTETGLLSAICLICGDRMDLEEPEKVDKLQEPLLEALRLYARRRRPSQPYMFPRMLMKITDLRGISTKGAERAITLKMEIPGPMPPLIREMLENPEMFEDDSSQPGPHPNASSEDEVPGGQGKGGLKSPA

[4] = target: T3, modified (phosphorylated) RXRα, mobility-shifted form (human, UniProt P19793 1-462, phosphoserine at 56 (as in SEQ ID NO: 1) and phosphoserine at 70 (MS/MS)); experiment: CoIP of PLK1-KD or PLK1-PBD with RXRα in HeLa cells (FIG. 6)
T3 construct: Cdk1-phosphorylated form with reduced mobility on SDS-PAGE; Endogenous and Myc-, FLAG-, GST-tagged forms are merged; also called m-RXRα; p-RXRα
T3 sequence: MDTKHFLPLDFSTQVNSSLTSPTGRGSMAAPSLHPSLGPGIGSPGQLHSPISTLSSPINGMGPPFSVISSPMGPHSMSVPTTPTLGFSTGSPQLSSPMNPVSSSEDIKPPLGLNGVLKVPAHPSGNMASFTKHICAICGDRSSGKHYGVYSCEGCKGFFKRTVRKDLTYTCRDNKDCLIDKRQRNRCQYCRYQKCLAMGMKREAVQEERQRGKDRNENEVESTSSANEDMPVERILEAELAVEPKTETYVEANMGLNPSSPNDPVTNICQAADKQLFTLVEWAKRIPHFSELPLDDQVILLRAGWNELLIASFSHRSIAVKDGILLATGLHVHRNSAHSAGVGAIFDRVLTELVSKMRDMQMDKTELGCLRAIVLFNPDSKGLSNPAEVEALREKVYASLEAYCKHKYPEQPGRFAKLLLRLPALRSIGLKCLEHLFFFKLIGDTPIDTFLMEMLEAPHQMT

[5] = target: T4, regular 55 kDa RXRα (unmodified form) (human, UniProt P19793 1-462); experiment: co-immunoprecipitation from HeLa cells (IP: FLAG, WB: Myc)
T4 construct: Non-shifted band of RXRα; Endogenous and tagged (Myc, FLAG, GST) forms are merged; also called regular RXRα; GST-RXRα (not phosphorylated)
T4 sequence: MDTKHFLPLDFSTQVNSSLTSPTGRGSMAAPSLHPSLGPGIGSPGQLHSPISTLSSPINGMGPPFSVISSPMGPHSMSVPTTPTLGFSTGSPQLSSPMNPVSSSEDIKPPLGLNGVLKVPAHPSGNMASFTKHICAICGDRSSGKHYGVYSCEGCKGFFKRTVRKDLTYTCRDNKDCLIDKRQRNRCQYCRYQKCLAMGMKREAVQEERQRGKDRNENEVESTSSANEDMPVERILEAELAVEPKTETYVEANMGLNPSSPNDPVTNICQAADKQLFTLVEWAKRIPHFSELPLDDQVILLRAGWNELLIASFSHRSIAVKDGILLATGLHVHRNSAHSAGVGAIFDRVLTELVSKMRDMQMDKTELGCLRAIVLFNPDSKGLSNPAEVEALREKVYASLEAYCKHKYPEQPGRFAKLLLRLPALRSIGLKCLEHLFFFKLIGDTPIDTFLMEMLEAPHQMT

[6] = target: T5, polo-like kinase 1 (PLK1), full-length (human, UniProt P53350 1-603); experiment: CoIP in HeLa cells (FIG. 3)
T5 construct: Endogenous, FLAG-tagged and His-tagged forms are merged here; also called FLAG-PLK1; Flag-PLK1

[7] = target: T2, retinoic acid receptor-γ (RARγ); experiment: CoIP in HeLa cells (FIG. 3)
[8] = target: T5, polo-like kinase 1 (PLK1), full-length; experiment: CoIP in HeLa cells (FIG. 4)
[9] = target: T5, polo-like kinase 1 (PLK1), full-length; experiment: CoIP in HeLa cells (FIG. 5)

Molecule: CC[C@@H]1C(=O)N(C)c2cnc(Nc3ccc(C(=O)NC4CCN(C)CC4)cc3OC)nc2N1C1CCCC1 [BI2536]
- RXRα shift (mobility shift on SDS-PAGE, WB) (RXRα shift): did not inhibit
- inducing mitosis arrest (cancer cells): inducing mitosis arrest
- mitotic progression of cancer cells (cancer cells): inhibited mitotic progression of cancer cells
- effect in p-RXRα-negative noncancerous QSG-7701 cells (QSG-7701 cells): active even in QSG-7701 cells

Molecule: O=C1NC(=NCc2cccs2)S/C1=C\c1ccc2ncccc2c1 [RO-3306]
- level of p-RXRα detected by the anti-pS56-RXRα antibody (RXRα shift; mitotic HeLa cells): reduced
- RXRα shift (mobility shift on SDS-PAGE, WB) (RXRα shift): strongly inhibited RXRα shift in a dose dependent manner
- PLK1 activation / PLK1 phosphorylation (PLK1 phosphorylation): reduced PLK1 phosphorylation in a dose dependent manner
- centrosomal RXRα staining by the regular anti-RXRα antibody [1]: inhibited centrosomal RXRα staining
- centrosomal staining by the anti-pS56-RXRα antibody [1]: eliminated centrosomal staining by the antibody
- in situ interaction between p-RXRα and PLK1 at the centrosome (PLA) [2]: inhibited the in situ interaction

Molecule: Oc1c2ccccc2c2c3c(cccc13)N=N2 [SP600125]
- RXRα shift (mobility shift on SDS-PAGE, WB) (RXRα shift): no effect

Molecule: Cc1cc(Nc2cc(N3CCN(C)CC3)nc(Sc3ccc(NC(=O)C4CC4)cc3)n2)n[nH]1 [VX680]
- PLK1 activation / PLK1 phosphorylation (PLK1 phosphorylation): attenuated

Molecule: CN1CC[C@H](c2c(O)cc(O)c3c(=O)cc(-c4ccccc4Cl)oc23)[C@H](O)C1 [flavopiridol]
- RXRα shift (mobility shift on SDS-PAGE, WB) (RXRα shift): strongly inhibited RXRα shift in a dose dependent manner

Molecule: CC(=O)c1c(C)c2cnc(Nc3ccc(N4CCNCC4)cn3)nc2n(C2CCCC2)c1=O [palbociclib]
- RXRα shift (mobility shift on SDS-PAGE, WB) (RXRα shift): no effect

Molecule: CC1=CC(=O)C(C(C)C)=C/C1=N/OC(=O)c1ccccc1C [poloxin]
- mitotic progression of cancer cells (cancer cells): inhibited mitotic progression of cancer cells

B1: RXRα-1-235, regular form (receptor)
chain: MDTKHFLPLDFSTQVNSSLTSPTGRGSMAAPSLHPSLGPGIGSPGQLHSPISTLSSPINGMGPPFSVISSPMGPHSMSVPTTPTLGFSTGSPQLSSPMNPVSSSEDIKPPLGLNGVLKVPAHPSGNMASFTKHICAICGDRSSGKHYGVYSCEGCKGFFKRTVRKDLTYTCRDNKDCLIDKRQRNRCQYCRYQKCLAMGMKREAVQEERQRGKDRNENEVESTSSANEDMPVERI
- binding result [3]: no binding

B2: PLK1-KD (N-terminal kinase domain of PLK1) (enzyme, UniProt P53350 1-326, looked up)
chain: MSAAVTAGKLARAPADPGKAGVPGVAAPGAPAAAPPAKEIPEVLVDPRSRRRYVRGRFLGKGGFAKCFEISDADTKEVFAGKIVPKSLLLKPHQREKMSMEISIHRSLAHQHVVGFHGFFEDNDFVFVVLELCRRRSLLELHKRRKALTEPEARYYLRQIVLGCQYLHRNRVIHRDLKLGNLFLNEDLEVKIGDFGLATKVEYDGERKKTLCGTPNYIAPEVLSKKGHSFEVDVWSIGCIMYTLLVGKPPFETSCLKETYLRIKKNEYSIPKHINPVAASLIQKMLQTDPTARPTINELLNDEFFTSGYIPARLPITCLTIPPRFS
notes: domain: kinase domain (KD)
- binding result [4]: no binding
- binding result [5]: no binding

B3: RXRα-1-235, modified form with mobility shift (receptor)
chain: MDTKHFLPLDFSTQVNSSLTSPTGRGSMAAPSLHPSLGPGIGSPGQLHSPISTLSSPINGMGPPFSVISSPMGPHSMSVPTTPTLGFSTGSPQLSSPMNPVSSSEDIKPPLGLNGVLKVPAHPSGNMASFTKHICAICGDRSSGKHYGVYSCEGCKGFFKRTVRKDLTYTCRDNKDCLIDKRQRNRCQYCRYQKCLAMGMKREAVQEERQRGKDRNENEVESTSSANEDMPVERI
modifications: phosphorylated (mobility-shifted); sites not stated for this construct
notes: A/B domain plus DBD
- binding result [6]: binds
- binding result [7]: no binding

B4: RXRα-LBD (ligand-binding domain of RXRα) (receptor)
chain: TSSANEDMPVERILEAELAVEPKTETYVEANMGLNPSSPNDPVTNICQAADKQLFTLVEWAKRIPHFSELPLDDQVILLRAGWNELLIASFSHRSIAVKDGILLATGLHVHRNSAHSAGVGAIFDRVLTELVSKMRDMQMDKTELGCLRAIVLFNPDSKGLSNPAEVEALREKVYASLEAYCKHKYPEQPGRFAKLLLRLPALRSIGLKCLEHLFFFKLIGDTPIDTFLMEMLEAPHQMT
notes: also called LBD of RXRα
- binding result [8]: no binding

B5: RXRα mutant lacking the N-terminal A/B domain (receptor)
chain: CAICGDRSSGKHYGVYSCEGCKGFFKRTVRKDLTYTCRDNKDCLIDKRQRNRCQYCRYQKCLAMGMKREAVQEERQRGKDRNENEVESTSSANEDMPVERILEAELAVEPKTETYVEANMGLNPSSPNDPVTNICQAADKQLFTLVEWAKRIPHFSELPLDDQVILLRAGWNELLIASFSHRSIAVKDGILLATGLHVHRNSAHSAGVGAIFDRVLTELVSKMRDMQMDKTELGCLRAIVLFNPDSKGLSNPAEVEALREKVYASLEAYCKHKYPEQPGRFAKLLLRLPALRSIGLKCLEHLFFFKLIGDTPIDTFLMEMLEAPHQMT
notes: also called RXRα-AA/B (so in the source)
- binding result [9]: no binding
